Assay results published in PMC10714399, “Open Source Antibiotics: Simple Diarylimidazoles Are Potent against Methicillin-Resistant Staphylococcus aureus” (ACS Infectious Diseases, 2023).
Values after ≈ are worked out from the molar mass of the structure shown.

How the values were obtained:
molecular beacon DNA = experiment: DNA binding assay (molecular beacon melt curve); conditions: compound 0-5 μM, DNA 400 nM
Description: An attempt to characterize the mechanism of toxicity led to testing compounds’ interactions with DNA molecular beacons, which are short strands of DNA tagged with a donor–acceptor pair of fluorophores. The proximity between the fluorophores when the DNA strand is correctly folded results in no fluorescence from the donor; should a compound interfere with DNA folding, a change in the melting temperature will be observed.
A molecular beacon DNA sequence [FAM] CGTATATATATATTTTTATATATATACG [TAM] (Eurofin Genomics, Germany) labeled with fluorescein–tetramethylrhodamine donor–acceptor pair was dissolved in nuclease-free water at 100 μM, aliquoted, and kept frozen at −20 °C.
A working 2 μM DNA solution and compound dilution at 2 and 20 μM in hybridization buffer (10 mM Tris, 1 mM EDTA, 50 mM NaCl, 1.5 mM MgCl2 pH 8) was made. DNA was annealed by heating up to 95 °C on a heat block and allowing to cool down to room temperature. […]
Measurements on the prepared plates were made on an Applied Biosystems 7500/7500 FastReal-Time PCR System (ThermoFisher, UK). A standard melt curve experiment was setup where temperature was ramped up from 15 to 90 °C at a 1% step gradient and fluorescence was monitored for filters 1 (FAM) and 3 (TAMRA). Fluorescence first derivatives against temperature were exported to Microsoft Excel and peak fitting was done using Origin 2022B.

human red blood cells = format: cell-based; conditions: red cells of human, 20 h
Protocol: (§1) The absorbance was measured using a Tecan M1000 Pro monochromator plate reader.
(1 picture or pasted object on this page, not shown here)

[1] = tested on: Cryptococcus neoformans H99 ATCC 208821; experiment: CO-ADD antifungal assay, C. neoformans; format: cell-based; conditions: ATCC208821
Protocol: Hit Confirmation of active compounds by whole cell growth inhibition assays was conducted as an 8-point dose response to determine the Minimum Inhibitory Concentration (MIC), in duplicate (n=2). The inhibition of growth is measured against those microorganisms that […]
Included in the Hit Confirmation were 5 bacteria: Escherichia coli, Klebsiella pneumoniae, Acinetobacter baumannii, Pseudomonas aeruginosa and Staphylococcus aureus, and 2 fungi Candida albicans and Cryptococcus neoformans.
In addition to determining MIC, active compounds were counter screened for cytotoxicity against a human embryonic kidney cell line, HEK293, by determining their CC50 value. The compounds were also screened for haemolysis of human red blood cells.
Assay Parameters Bacteria Fungi HEK293 Haemolysis […]
Duplicate (n=2) Duplicate (n=2) Duplicate (n=2) Duplicate (n=2)
QC Control MIC: Control MIC: Control CC50: Control HC10:
Non-Binding Non-Binding TC, 384-well Polypropylene […]
Fungi strains were cultured for 3 days on Yeast Extract-Peptone Dextrose (YPD) agar at 30 °C. A yeast suspension of 1 x 10^6 to 5 x 10^6 CFU/mL (as determined by OD530) was prepared from five colonies. […]
In both cases, the percentage of growth inhibition was calculated for each well, using the negative control (media only) and positive control (fungi without inhibitors) on the same plate. […]
(§2) Reading Plates - Haemolysis Clear 384w Corning 3680 […]

in vitro = format: cell-based; conditions: human
Protocol: HEK293 cells were counted manually in a Neubauer haemocytometer and then plated in the 384-well plates containing the compounds to give a density of 5000 cells/well in a final volume of 50 µL. DMEM supplemented with 10% FBS was used as growth media and the cells were incubated together with the compounds for 20 h at 37 °C in 5% CO2.
Cytotoxicity (or cell viability) was measured by fluorescence, ex: 560/10 nm, em: 590/10 nm (F560/590), after addition of 5 µL of 25 µg/mL resazurin (2.3 µg/mL final concentration) and after incubation for further 3 h at 37 °C in 5% CO2. The fluorescence intensity was measured using a Tecan M1000 Pro monochromator plate reader, using automatic gain calculation. […]
Human whole blood was washed three times with 3 volumes of 0.9% NaCl and then resuspended in same to a concentration of 0.5 x 10^8 cells/mL, as determined by manual cell count in a Neubauer haemocytometer. […]
Haemolysis was determined by measuring the supernatant absorbance at […] (OD405).
as §1
HC10 and HC50 (concentration at 10% and 50% haemolysis, respectively) were calculated by curve fitting the inhibition values vs. log(concentration) using a sigmoidal dose-response function with variable fitting values for top, bottom and slope. […]
as §2

[2] = HEK293 toxicity, 96-well dose-response (UCL; MTT or resazurin, with or without recovery); format: cell-based, human; conditions: human, HEK293 cells; across protocol variations (recovery yes/no, MTT/resazurin); read-out: CC50 HEK293
Protocol: The importance of balancing potency vs MRSA and cytotoxicity led us to examine a subset of compounds more thoroughly for toxicity against human embryonic kidney cell line HEK293. […] Dmax is a parameter that quantifies toxicity at the highest tested concentration (32 μg/mL for all compounds), calculated as reciprocal percentage of viable cells (100 – viability%), where cells either were allowed to recover or viability was measured immediately after treatment. […] Our efforts focused on trying to replicate the original toxicity experiments (by CO-ADD) with tamoxifen using a protocol modified for use with 96-well plates. Given the variability of protocols and results in the literature,[28] it was important to compare with a standard protocol we have reliably used in our own laboratories.[29]−[33] […] Truly “non-toxic” compounds might be expected to show Dmax < 50% for all experiment variations, e.g., 861. […] A large spread of Dmax values comparing recovery and non-recovery conditions larger than 20% is perhaps indicative of a mechanism of toxicity that persists beyond exposure, i.e., cytotoxic compounds that continue to induce toxicity as cells recover and restart dividing, for example, compounds 865, 870, 871, 980, and 981. […] This variability could be driven by interference of the compounds with the fluorescence readout or resorufin build-up as previously described.[27]
HEK293 cells (ATCC, UK) at passage 32 were a kind gift from Dr. Ben Allsop from the Translational Research Office at University College London. Cells were tested for mycoplasma using a MycoAlert Detection Kit (Lonza, Switzerland) as per manufacturer instructions, frozen stocks were stored in liquid nitrogen, and cells were re-tested whenever a new aliquot was thawed.
Cells were maintained in DMEM (Sigma-Aldrich, UK) supplemented with 10% heat-inactivated FBS (Sigma-Aldrich, UK), 1% GlutaMax (ThermoFisher, UK), and 1% sodium pyruvate (Lonza, UK) without antibiotics in an incubator at 37 °C and 5% CO2. Media was changed every 2 days, and cells were passaged every 3–4 days at a subcultivation ratio of 1:10, by detaching the cells with phenol-free TrypLE Express (ThermoFisher, UK), after washing with HBSS Ca^2+/Mg^2+ (ThermoFisher, UK). Up to 55 passages were used throughout the experiments.
(a) Cell seeding: At subculture, a dilute solution of cells was counted using Trypan Blue (Sigma-Aldrich, UK) and a hemocytometer. Cells were further diluted to 7000 or 50 000 cells/mL for experiments.
For recovery experiments, 700 cells (100 μL) were seeded in 96-well plates and incubated for 48 h while cells reached exponential phase.
For non-recovery experiments, 5000 cells (100 μL) were seeded in 96-well plates and incubated for 48 h while cells reached confluence. This is the same number of cells as per the CO-ADD protocol where 384-well plates were used, but we extended the growth time to 48 h to produce a similar confluency.
Stock solutions were diluted 100 times (to 1% DMSO) to 32 μg/mL in full medium (vortexed briefly) and then serially diluted using a digital pipet (Explorer, Eppendorf, Germany) at a dilution factor of 2 to a final concentration of […].
(c) Dosing experiments: At the specified time after seeding, media was removed from cells, cells were washed with HBSS Ca^2+/Mg^2+ (100 μL), and 100 μL of diluted compounds were added as per Supporting Information - Biology, Figure S4, and incubated for 24 h.
After treatment, solutions were removed, and cells were washed with HBSS Ca^2+/Mg^2+. For non-recovery experiments, viability was determined immediately as described below.
For recovery experiments, fresh media was added to plates (100 μL) and cells were returned to the incubator for another 72 h, after which viability was recorded as described below.
i. MTT assay: 3-[4,5-Dimethylthiazol-2-yl]-2,5-diphenyltetrazolium bromide (MTT) (Sigma-Aldrich, UK) was dissolved in sterile PBS at 5 mg/mL with sonication (20 min), protected from light. […]

Question: For `COc1cccc2c1C(=O)c1c(O)c3c(c(O)c1C2=O)C[C@@](O)(C(=O)CO)C[C@@H]3O[C@H]1C[C@H](N)[C@H](O)[C@H](C)O1` [doxorubicin], which “effect on DNA molecular beacon melting temperature” value (molecular beacon DNA) is on record?
Answer: Its value is “dose–response behavior”.

Question: Which “HC10 (concentration at 10% haemolysis)” value (human red blood cells) does the source give for `CC[C@H](C)[C@H](NC(=O)CN)C(=O)NCC(=O)N[C@@H](C)C(=O)N[C@H](C(=O)N[C@@H](CC(C)C)C(=O)N[C@@H](CCCCN)C(=O)N[C@H](C(=O)N[C@@H](CC(C)C)C(=O)N[C@H](C(=O)N[C@H](C(=O)NCC(=O)N[C@@H](CC(C)C)C(=O)N1CCC[C@H]1C(=O)N[C@@H](C)C(=O)N[C@@H](CC(C)C)C(=O)N[C@H](C(=O)N[C@@H](CO)C(=O)N[C@@H](Cc1c[nH]c2ccccc12)C(=O)N[C@H](C(=O)N[C@@H](CCCCN)C(=O)N[C@@H](CCCNC(=N)N)C(=O)N[C@@H](CCCCN)C(=O)N[C@@H](CCCNC(=N)N)C(=O)N[C@@H](CCC(N)=O)C(=O)N[C@@H](CCC(N)=O)C(N)=O)[C@@H](C)CC)[C@@H](C)CC)[C@@H](C)O)[C@@H](C)O)C(C)C)C(C)C` [Melittin] here?
Answer: Its value is 2.7 µg/mL.

Question: With `OC(Cn1cncn1)(Cn1cncn1)c1ccc(F)cc1F` [Fluconazole] as the compound, how does the MIC [1] read?
Answer: Its MIC is 8 mg/L.

Question: With `CC/C(=C(\c1ccccc1)c1ccc(OCCN(C)C)cc1)c1ccccc1` [tamoxifen, reference compound] as the compound, how does the CC50 at 20 h (in vitro) read?
Answer: The CC50 at 20 h was 9 mg/L (≈ 24.2 µM).

Question: And the CC50 at 24 h [2]?
Answer: The CC50 at 24 h was 5.3 to 15.5 mg/L (≈ 14.3 to 41.7 µM).
